PMC10165273, “Itch receptor MRGPRX4 interacts with the receptor activity–modifying proteins” (The Journal of Biological Chemistry, 2023)
Values joined by “and” are separate entries in the source; they are usually repeats but may differ in a detail not shown here. Equal values may be shown once. Read-outs that look alike come from different tables or passages of the source.

What was measured:
MRGPRX4 + RAMP1 = target: T1, MRGPRX4 + RAMP1 (Homo sapiens, UniProt Q96LA9); assay: IP1 accumulation, MRGPRX4 coexpressed with RAMP1; format: cell-based; design: key to IP1 Basal / response to agonist, X4:ramp1.I:1 / response to agonist, X4:ramp1.I:2 / response to agonist, X4:ramp1.I:0.25 / response to agonist, X4:ramp1.I:0.5: % IP1; unstimulated mock = 0%, fully stimulated MRGPRX4 = 100%; conditions: for EC50: read-out: IP1 EC50; for IP1 accumulation (normalized): MRGPRX4+RAMP1 1pg 1:1, Supplementary Figure 5d, 5g
T1 construct: expressed in transfected cells; host or cells: HEK293T
T1 sequence (Q96LA9 whole entry): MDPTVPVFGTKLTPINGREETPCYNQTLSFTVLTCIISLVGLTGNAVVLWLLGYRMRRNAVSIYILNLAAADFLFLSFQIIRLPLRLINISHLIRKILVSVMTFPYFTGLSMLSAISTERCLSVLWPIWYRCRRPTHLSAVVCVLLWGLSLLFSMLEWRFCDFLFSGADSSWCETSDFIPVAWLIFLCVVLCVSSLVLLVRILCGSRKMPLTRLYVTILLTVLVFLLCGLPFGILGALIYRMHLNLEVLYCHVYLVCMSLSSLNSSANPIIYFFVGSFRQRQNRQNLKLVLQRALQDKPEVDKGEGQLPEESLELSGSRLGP
Method: HEK293T cells were transfected with 1 pg/cell of MRGPRX4 DNA, and the amount of DNA was kept constant at 2 pg/cell with pcDNA3.1(+) empty vector, unless otherwise specified. Twenty four hours after transfection, IP1 assay was performed as previously described ([51]). When applicable, cells were treated with 1 μM YM254890 (YM) or different concentrations of U73122 for 1 h prior to addition of agonist or buffer. After incubation for 2 h, HTRF reagents and IP1 calibration standards were added and incubated for 2 h in the dark at room temperature. Time-resolved fluorescence signals were read on the BioTek Synergy NEO-TRF Hybrid multi-mode reader (BioTek Instruments). All data were carried out in three independent experiments with three technical replicate each.
For a homogenous transfection of MRGPRX4, a master mix of MRGPRX4 DNA was made prior to addition of the RAMP DNA. […]
Data reduction, standard calibration, and transformation of HTRF data were performed as previously described ([51]). Normalized IP1 values were calculated relative to the unstimulated mock-transfected cells (set to 0%) and fully stimulated MRGPRX4 (alone if applicable) (set to 100%).

mock (βArr2) = assay: BRET2 β-arrestin2 recruitment, mock-transfected cells; format: cell-based, human; conditions: 100µM Ng
MRGPRX4 = target: T2, MRGPRX4 (Homo sapiens, UniProt Q96LA9); assay: BRET2 β-arrestin2 recruitment to MRGPRX4; format: cell-based; conditions: for net BRET2 ratio, βArr2 recruitment: Fig 5b, 100µM ligand, replicate values; for net BRET2 ratio, βArr2 recruitment / BRET2 ratio: listed as Ng; for BRET2 ratio: Fig 5c, MRGPRX4, 100μM ligand
T2 construct: expressed in transfected cells; host or cells: HEK293T
T2 sequence (Q96LA9 whole entry): as above
Excerpt: The method for homogenous transfection of β-Arrestin and BRET^2 assay of β-Arrestin recruitment has been described previously ([51]). […] BRET^2 measurements were taken on the BioTek Synergy NEO2 microplate reader.
For MRGPRX4 DNA titration assays, HEK293T cells were cotransfected with either β-Arrestin1 or β-Arrestin2 with increasing amounts of MRGPRX4 (0.5, 1, or 2 pg/cell).
To measure the time-course of β-Arrestin2 recruitment to MRGPRX4 and CALCRL, the transfection and general procedure described above was followed, with the modification that Prolume Purple was added first, followed by addition of the appropriate agonists ([51]).
The BRET ratio for each sample was determined by calculating the ratio of the light intensity emitted by the GFP10 (515 nm) (acceptor) over the light intensity emitted by the RLuc3 (395 nm) (donor). Net BRET^2 was determined by subtracting the basal BRET^2 (β-arrestin-RLuc3 only) signal from the BRET^2 signals. All BRET values were normalized to the MRGPRX4-only condition.

[1] = MRGPRX4 + RAMP1 0.25 pg (Fig. S3), normalized per agonist
[2] = MRGPRX4 + RAMP1 0.5 pg (Fig. S3), normalized per agonist
[3] = MRGPRX4 + RAMP1 1 pg (Fig. S3), normalized per agonist
[4] = MRGPRX4 + RAMP1 2 pg (Fig. S3), normalized per agonist
[5] = Tet-On MRGPRX4:RAMP1 Ratio 1:0.5 (Fig. S5D)
[6] = Tet-On MRGPRX4:RAMP1 Ratio 1:0.75 (Fig. S5D)
[7] = Tet-On MRGPRX4:RAMP1 Ratio 1:1 (Fig. S5D)
[8] = MRGPRX4-GFP10 BRET2 time-course, 100 µM (Fig. 5)

CC(C)[C@H]1CC[C@H](C(=O)N[C@H](Cc2ccccc2)C(=O)O)CC1 [Nateglinide]
IP1 Basal (MRGPRX4 + RAMP1; [1]): 19.44
EC50 (MRGPRX4 + RAMP1; [1]): 11.5 µM
Emax (MRGPRX4 + RAMP1; MRGPRX4 + RAMP1 0.25 pg (Fig. S3), normalized per agonist, read-out: IP1 Emax): 112%
Emax (MRGPRX4 + RAMP1; MRGPRX4 + RAMP1 0.25 pg (Fig. S3), normalized per agonist, read-out: IP1 span): 92.4%
IP1 Basal (MRGPRX4 + RAMP1; [2]): 18.21
EC50 (MRGPRX4 + RAMP1; [2]): 9.56 µM
Emax (MRGPRX4 + RAMP1; MRGPRX4 + RAMP1 0.5 pg (Fig. S3), normalized per agonist, read-out: IP1 Emax): 115%
Emax (MRGPRX4 + RAMP1; MRGPRX4 + RAMP1 0.5 pg (Fig. S3), normalized per agonist, read-out: IP1 span): 96.6%
IP1 Basal (MRGPRX4 + RAMP1; [3]): 16.52
EC50 (MRGPRX4 + RAMP1; [3]): 9.45 µM
Emax (MRGPRX4 + RAMP1; MRGPRX4 + RAMP1 1 pg (Fig. S3), normalized per agonist, read-out: IP1 Emax): 114%
Emax (MRGPRX4 + RAMP1; MRGPRX4 + RAMP1 1 pg (Fig. S3), normalized per agonist, read-out: IP1 span): 97.4%
IP1 Basal (MRGPRX4 + RAMP1; [4]): 11.98
EC50 (MRGPRX4 + RAMP1; [4]): 9.37 µM
Emax (MRGPRX4 + RAMP1; MRGPRX4 + RAMP1 2 pg (Fig. S3), normalized per agonist, read-out: IP1 Emax): 114%
Emax (MRGPRX4 + RAMP1; MRGPRX4 + RAMP1 2 pg (Fig. S3), normalized per agonist, read-out: IP1 span): 102%
IP1 Basal (MRGPRX4 + RAMP1; [5]): 7.772
EC50 (MRGPRX4 + RAMP1; [5]): 8.42 µM
Emax (MRGPRX4 + RAMP1; Tet-On MRGPRX4:RAMP1 Ratio 1:0.5 (Fig. S5D), read-out: IP1 Emax): 111%
Emax (MRGPRX4 + RAMP1; Tet-On MRGPRX4:RAMP1 Ratio 1:0.5 (Fig. S5D), read-out: IP1 span): 104%
IP1 Basal (MRGPRX4 + RAMP1; [6]): 6.875
EC50 (MRGPRX4 + RAMP1; [6]): 5.95 µM
Emax (MRGPRX4 + RAMP1; Tet-On MRGPRX4:RAMP1 Ratio 1:0.75 (Fig. S5D), read-out: IP1 Emax): 90%
Emax (MRGPRX4 + RAMP1; Tet-On MRGPRX4:RAMP1 Ratio 1:0.75 (Fig. S5D), read-out: IP1 span): 83.1%
IP1 Basal (MRGPRX4 + RAMP1; [7]): 7.220
EC50 (MRGPRX4 + RAMP1; [7]): 6.43 µM
Emax (MRGPRX4 + RAMP1; Tet-On MRGPRX4:RAMP1 Ratio 1:1 (Fig. S5D), read-out: IP1 Emax): 89.6%
Emax (MRGPRX4 + RAMP1; Tet-On MRGPRX4:RAMP1 Ratio 1:1 (Fig. S5D), read-out: IP1 span): 82.3%
IP1 accumulation (normalized) (MRGPRX4 + RAMP1; log [nateglinide] (M) -4): 91.5442 and 89.3648 and 84.5333 and 68.7205
IP1 accumulation (normalized) (MRGPRX4 + RAMP1; log [nateglinide] (M) -4.69897): 71.6977 and 68.3681 and 72.5875
IP1 accumulation (normalized) (MRGPRX4 + RAMP1; log [nateglinide] (M) -5.39794): 40.9098 and 36.9736 and 38.5575
IP1 accumulation (normalized) (MRGPRX4 + RAMP1; log [nateglinide] (M) -6.09691): 15.3098 and 13.9439 and 10.1316
IP1 accumulation (normalized) (MRGPRX4 + RAMP1; log [nateglinide] (M) -7.49485): 9.7787 and 6.02 and 5.114
β-arrestin recruitment BRET2 signal (Figure 5d) (mock (βArr2)): -0.01563
β-arrestin2 recruitment to MRGPRX4 (MRGPRX4; 100 μM agonist (Fig. 5B, C)): recruited β-arrestin2 more strongly than β-arrestin1
net BRET2 ratio, βArr2 recruitment (MRGPRX4; MRGPRX4 20ng, 0.5 pg DNA/cell): 0.01059 and 0.011 and 0.01083 and 0.009137 and 0.01004 and 0.009779 and 0.007885 and 0.007959 and 0.007875 and 0.009405 and 0.008616 and 0.00928 and 0.007811 and 0.00797 and 0.009994 and 0.008653 and 0.00706 and 0.007614 and 0.007209 and 0.007504 and 0.007132 and 0.006566 and 0.006348 and 0.007157 and 0.004522 and 0.007759 and 0.005207
net BRET2 ratio, βArr2 recruitment (MRGPRX4; MRGPRX4 40ng, 1 pg DNA/cell): 0.01411 and 0.01341 and 0.01314 and 0.01164 and 0.01153 and 0.01104 and 0.009585 and 0.009093 and 0.008671 and 0.0118 and 0.009621 and 0.01107 and 0.01117 and 0.01052 and 0.009545 and 0.01099 and 0.00914 and 0.009334 and 0.008409 and 0.01062 and 0.01019 and 0.008186 and 0.008003 and 0.007557 and 0.007525 and 0.005338 and 0.009291
net BRET2 ratio, βArr2 recruitment (MRGPRX4; MRGPRX4 80ng, 2 pg DNA/cell): 0.01501 and 0.01563 and 0.01506 and 0.0134 and 0.0136 and 0.01318 and 0.01149 and 0.0115 and 0.01095 (2×) and 0.01387 and 0.01159 and 0.01257 and 0.01157 and 0.01276 and 0.01058 and 0.009957 and 0.009364 and 0.01169
net BRET2 ratio, βArr2 recruitment (MRGPRX4; βArr2 only, 0 pg MRGPRX4 DNA/cell): 0.0002584 and -0.0001954 and -6.2982e-5 and -0.0001775 and 0.0006514 and -0.0004739 and -9.3811e-5 and 0.0004305 and -0.0003367 and -6.4621e-5 and -0.0005147 and 0.0005793 and -0.0001286 and 0.0001629 and -3.4338e-5 and 0.0006863 and -0.0005797 and -0.0001066 and -6.7124e-5 and 1.05e-5 and 5.6622e-5 and 0.0001307 and -0.0006572 and 0.0005265 and 0.0006391 and 0.0003062 and -0.0009453
BRET2 ratio (MRGPRX4; 60 s): 0.01411 and 0.01234 and 0.0129
BRET2 ratio (MRGPRX4; 120 s): 0.01624 and 0.01368 and 0.01342
BRET2 ratio (MRGPRX4; 180 s): 0.01716 and 0.01419 and 0.01539
BRET2 ratio (MRGPRX4; 240 s): 0.01732 and 0.01509 and 0.01494
BRET2 ratio (MRGPRX4; 300 s): 0.01643 and 0.01468 and 0.01593
BRET2 ratio (MRGPRX4; 360 s): 0.01701 and 0.01469 and 0.01434
BRET2 ratio (MRGPRX4; 420 s): 0.01667 and 0.01531 and 0.01417
BRET2 ratio (MRGPRX4; 480 s): 0.01658 and 0.0139 and 0.01409
BRET2 ratio (MRGPRX4; 540 s): 0.01614 and 0.01397 and 0.01412
BRET2 ratio (MRGPRX4; 600 s): 0.01601 and 0.01404 and 0.013
BRET2 ratio (MRGPRX4; 660 s): 0.0171 and 0.01418 and 0.0126
BRET2 ratio (MRGPRX4; 720 s): 0.01525 and 0.01442 and 0.01263
BRET2 ratio (MRGPRX4; 780 s): 0.01511 and 0.01318 and 0.01349
BRET2 ratio (MRGPRX4; 840 s): 0.01493 and 0.01394 and 0.01155
BRET2 ratio (MRGPRX4; 900 s): 0.01482 and 0.01445 and 0.01282
BRET2 ratio (MRGPRX4; 960 s): 0.01446 and 0.01322 and 0.01117
BRET2 ratio (MRGPRX4; 1020 s): 0.01461 and 0.01265 and 0.01275
BRET2 ratio (MRGPRX4; 1080 s): 0.01404 and 0.01402 and 0.01514
BRET2 ratio (MRGPRX4; 1140 s): 0.01394 and 0.01316 and 0.01206
BRET2 ratio (MRGPRX4; 1200 s): 0.01452 and 0.0141 and 0.01263
BRET2 ratio (MRGPRX4; 1260 s): 0.01409 and 0.01389 and 0.01057
BRET2 ratio (MRGPRX4; 1320 s): 0.01336 and 0.01334 and 0.0149
BRET2 ratio (MRGPRX4; 1380 s): 0.01171 and 0.01208 and 0.01329
normalized β-arrestin2 recruitment BRET2 signal (Figure 5f) (MRGPRX4; MRGPRX4, 100μM Ng): 1
Kfast (MRGPRX4; [8]): 0.008519
Kslow (MRGPRX4; [8]): 0.002534
Rate constant ratio (MRGPRX4; [8]): 3.361
Tau (fast) (MRGPRX4; [8]): 117.4
Tau (slow) (MRGPRX4; [8]): 394.6
two-phase decay Plateau (MRGPRX4; [8]): 0.004639
two-phase decay x0 (MRGPRX4; [8]): 56.70
two-phase decay y0 (MRGPRX4; [8]): 0.01291
time of peak β-arrestin2 recruitment to MRGPRX4 (MRGPRX4; time course (Fig. 5C)): 3 min
